This note sets out measurements from patent publication US20230219904A1 (SYNGENTA CROP PROTECTION AG, priority 2020, published 2023).

Holding throughout (assay type): in vivo
What all share (settings): applied at 125 g/ha, evaluated after 13 days

Assay [1] deals with Abutilon theophrasti (ABUTH). Kind of assay: Pre-emergence herbicidal glasshouse test (Table B1). The procedure: (§1) Seeds of a variety of test species are sown in standard soil in pots (Lolium perenne (LOLPE), Amaranthus retoflexus (AMARE), Abutilon theophrasti (ABUTH), Setaria faberi (SETFA), Echinochloa crus-galh (ECHCG), Ipomoea hederacea (IPOHE)). After cultivation for one day (pre-emergence) or after 8 days cultivation (post-emergence) under controlled conditions in a glasshouse (at 24/16° C., day/night; 14 hours light; 65% humidity), the plants are sprayed with an aqueous spray solution derived from the formulation of the technical active ingredient in acetone/water (50:50) solution containing 0.5% Tween 20 (polyoxyethelyene sorbitan monolaurate, CAS RN 9005-64-5). Compounds are applied at 500 g/h unless otherwise indicated. The test plants are then grown in a glasshouse under controlled conditions in a glasshouse (at 24/16° C., day/night; 14 hours light; 65% humidity) and watered twice daily. After 13 days for pre and post-emergence, the test is evaluated for the percentage damage caused to the plant. The biological activities are shown in the following table on a five-point scale (5=80-100%; 4=60-79%; 3=40-59%; 2=20-39%; 1=0-19%).

The subject of assay [2] is Amaranthus retoflexus (AMARE). The assay is described as above. The procedure:
as §1

Assay [3] deals with Echinochloa crus-galh (ECHCG). Described as above. The procedure:
as §1

The subject of assay [4] is Ipomoea hederacea (IPOHE). The assay is described as above. The procedure:
as §1

Assay [5] relates to Setaria faberi (SETFA). The assay is described as above. The procedure: as §1
The test system of assay [6] is Amaranthus retoflexus (AMARE). Kind of assay: Post-emergence herbicidal glasshouse test (Table B1). The procedure: as §1
Assay [7] has as its system Ipomoea hederacea (IPOHE). The description is as above. The procedure:
as §1

Assay [8] concerns Setaria faberi (SETFA). Described as above. The procedure:
as §1

The test system of assay [9] is Echinochloa crus-galh (ECHCG). The description is as above. The procedure: as §1

For `Cc1nc(C(=O)Nc2c(OC(F)F)ccc(C(=O)Nc3nnnn3C)c2Cl)cs1` [Compound 1.038], the “PRE Application ABUTH, percentage damage on five-point scale” value (“PRE Application ABUTH, percentage damage” below) in [1] was 5 (5=80-100%). Also, the “PRE Application AMARE, percentage damage on five-point scale” value (from here on “PRE Application AMARE, percentage damage”) in assay [2] was 5 (5=80-100%). The “PRE Application ECHCG, percentage damage on five-point scale” value (from here on “PRE Application ECHCG, percentage damage”) in assay [3] is 5 (5=80-100%). Further, the “PRE Application IPOHE, percentage damage on five-point scale” value (from here on “PRE Application IPOHE, percentage damage”) in assay [4] was 5 (5=80-100%). Further, the “PRE Application SETFA, percentage damage on five-point scale” value (shortened to “PRE Application SETFA, percentage damage”) in [5] was 4 (4=60-79%). Also, the “POST Application AMARE, percentage damage on five-point scale” value in assay [6] is recorded as 4 (4=60-79%). Moreover, the “POST Application IPOHE, percentage damage on five-point scale” value in assay [7] is 4 (4=60-79%). Besides, the “POST Application SETFA, percentage damage on five-point scale” value in assay [8] is 4 (4=60-79%).

As to `Cn1nnnc1NC(=O)c1ccc(OC(F)F)c(NC(=O)c2cc(Cl)sc2Cl)c1Cl` [Compound 1.041], the “PRE Application ABUTH, percentage damage” value in assay [1] is on record as 5 (5=80-100%). Besides, the “PRE Application AMARE, percentage damage” value in assay [2] is listed as 2 (2=20-39%). Moreover, the “PRE Application ECHCG, percentage damage” value in assay [3] is 3 (3=40-59%). In addition, the “PRE Application IPOHE, percentage damage” value in [4] was 2 (2=20-39%). The “PRE Application SETFA, percentage damage” value in assay [5] was 2 (2=20-39%). For the same compound, the “POST Application AMARE, percentage damage on five-point scale” value in [6] is recorded as 3 (3=40-59%). The “POST Application IPOHE, percentage damage on five-point scale” value in assay [7] was 3 (3=40-59%). The “POST Application SETFA, percentage damage on five-point scale” value in assay [8] is reported as 3 (3=40-59%).

`Cc1nc(C)c(C(=O)Nc2c(OC(F)F)ccc(C(=O)Nc3nnnn3C)c2Cl)s1` [Compound 1.042]: in assay [1], the “PRE Application ABUTH, percentage damage” value was 4 (4=60-79%). In addition, in [2], the “PRE Application AMARE, percentage damage” value is on record as 5 (5=80-100%). The “PRE Application ECHCG, percentage damage” value in assay [3] is listed as 5 (5=80-100%). Besides, the “PRE Application IPOHE, percentage damage” value in assay [4] was 5 (5=80-100%). In assay [5], the “PRE Application SETFA, percentage damage” value is 5 (5=80-100%). Besides, the “POST Application AMARE, percentage damage on five-point scale” value in assay [6] is 5 (5=80-100%). Also, the “POST Application ECHCG, percentage damage on five-point scale” value in [9] is 5 (5=80-100%). In addition, in assay [7], the “POST Application IPOHE, percentage damage on five-point scale” value is recorded as 5 (5=80-100%). For the same compound, the “POST Application SETFA, percentage damage on five-point scale” value in assay [8] is listed as 5 (5=80-100%).

In the case of `Cn1cc(C(=O)Nc2c(OC(F)(F)F)ccc(C(=O)Nc3nnnn3C)c2Cl)c(C(F)F)n1` [Compound 1.045], in assay [1], the “PRE Application ABUTH, percentage damage” value is given as 5 (5=80-100%). In [2], the “PRE Application AMARE, percentage damage” value was 5 (5=80-100%). For the same compound, the “PRE Application ECHCG, percentage damage” value in assay [3] is listed as 5 (5=80-100%). Moreover, the “PRE Application IPOHE, percentage damage” value in assay [4] is 4 (4=60-79%). Further, the “PRE Application SETFA, percentage damage” value in assay [5] is 5 (5=80-100%). For the same compound, in assay [6], the “POST Application AMARE, percentage damage on five-point scale” value was 5 (5=80-100%). Besides, the “POST Application ECHCG, percentage damage on five-point scale” value in assay [9] is listed as 5 (5=80-100%). Also, the “POST Application IPOHE, percentage damage on five-point scale” value in [7] is reported as 4 (4=60-79%). In addition, in [8], the “POST Application SETFA, percentage damage on five-point scale” value is recorded as 5 (5=80-100%).

For the compound `COc1ccccc1C(=O)Nc1c(OC(F)(F)F)ccc(C(=O)Nc2nnnn2C)c1Cl` [Compound 1.056], in assay [1], the “PRE Application ABUTH, percentage damage” value is given as 5 (5=80-100%). In assay [2], the “PRE Application AMARE, percentage damage” value is 3 (3=40-59%). Besides, the “PRE Application ECHCG, percentage damage” value in assay [3] is recorded as 1 (1=0-19%). In assay [5], the “PRE Application SETFA, percentage damage” value is 3 (3=40-59%). Moreover, the “POST Application AMARE, percentage damage on five-point scale” value in assay [6] is listed as 4 (4=60-79%). For the same compound, in assay [9], the “POST Application ECHCG, percentage damage on five-point scale” value is 4 (4=60-79%). Besides, the “POST Application IPOHE, percentage damage on five-point scale” value in assay [7] is on record as 4 (4=60-79%). Besides, in [8], the “POST Application SETFA, percentage damage on five-point scale” value is given as 4 (4=60-79%).

For the compound `Cn1nnnc1NC(=O)c1ccc(OC(F)(F)F)c(NC(=O)C(C)(F)F)c1Cl` [Compound 1.061], the “PRE Application AMARE, percentage damage” value in [2] is 5 (5=80-100%). The “PRE Application ECHCG, percentage damage” value in assay [3] was 3 (3=40-59%). In addition, the “PRE Application IPOHE, percentage damage” value in assay [4] is listed as 3 (3=40-59%). Moreover, the “PRE Application SETFA, percentage damage” value in [5] is 3 (3=40-59%). Further, the “POST Application AMARE, percentage damage on five-point scale” value in [6] is given as 5 (5=80-100%). In assay [9], the “POST Application ECHCG, percentage damage on five-point scale” value is given as 4 (4=60-79%). The “POST Application IPOHE, percentage damage on five-point scale” value in [7] was 4 (4=60-79%). For the same compound, the “POST Application SETFA, percentage damage on five-point scale” value in assay [8] is 5 (5=80-100%).
